Assay results reported in paper PMC5014320, “Screen of Non-annotated Small Secreted Proteins of Pseudomonas syringae Reveals a Virulence Factor That Inhibits Tomato Immune Proteases” (PLoS Pathogens, 2016).
Where a name gives a salt, the structure may show the parent alone.

Assays:
papain [1] = target: T1, papain (Carica papaya, UniProt P00784); assay: chromogenic protease assay, Lineweaver-Burk; assay type: biochemical; conditions: pH 6.8, 1 mM glutathione, 37 °C, 0.1-5 mM BAPNA
T1 construct: commercial purified papain (Sigma-Aldrich)
T1 sequence (P00784 134-345): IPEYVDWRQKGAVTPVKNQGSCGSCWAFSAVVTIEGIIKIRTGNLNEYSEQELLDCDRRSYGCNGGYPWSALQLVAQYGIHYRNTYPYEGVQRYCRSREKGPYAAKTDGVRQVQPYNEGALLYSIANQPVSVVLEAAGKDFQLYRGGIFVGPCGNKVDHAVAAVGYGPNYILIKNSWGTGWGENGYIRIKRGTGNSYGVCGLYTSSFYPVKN

papain [2] = target: papain (UniProt P00784); assay: enzyme inhibition kinetics (Lineweaver-Burk)

Molecule	chromogenic protease assay, Lineweaver-Burk (papain [1])	Ki (papain [2])
N=C(N)NCCC[C@H](NC(=O)c1ccccc1)C(=O)Nc1ccc([N+](=O)[O-])cc1 [BAPNA, Nα-Benzoyl-L-arginine 4-nitroanilide hydrochloride]	classical protease inhibition assays on purified papain using the chromogenic substrate BAPNA	
C14-inhibiting protein-1 (Cip1), wild type (natural protein)		3.98 nM
